# Results as given in patent publication US20090297545A1, “IMMUNOMODULATORY DAIRY PEPTIDES AND USES THEREOF” (Universite Laval, priority 2008, published 2009).
# Marks after values point to notes of the source that are not given here.
# Tested on: murine splenocytes
# Experiment: Ex vivo murine splenocytes proliferation assay (Alamar Blue), Example I
# Format: cell-based, BALB/c mice
# Settings: for Stimulation index, proliferation of murine splenocytes in the presence of Concavanalin A: ConA 0.5 μg/mL; for Stimulation index, proliferation of resting murine splenocytes: without ConA
# Experimental: Ex vivo murine splenocytes proliferation assay. The splenocytes were isolated from 6- to 12-weeks-old female BALB/c mice (Charles River, St-Constant, QC, Canada) and cultured in the absence and presence of suboptimal concentration of ConA (0.5 μg/mL). The peptides were solubilized in complete RPMI medium, agitated overnight at 4° C. then the solutions were adjusted to pH 7. Thereafter, the peptide solutions were added at various final concentrations (10-2000 μg/mL, protein basis) to the wells of 96-well round-bottomed microplates, which were incubated at 37° C. at 80% relative humidity in a 5% CO2 atmosphere for 72 h (with ConA) or 96 h (without ConA). Cell proliferation was evaluated by the reduction of the fluorochrome Alamar Blue™ (BioSource international, Camarillo, Calif., USA), which was added into the wells for the last 24 h of the incubation periods. The fluorescence of the supernatants was monitored at an excitation wavelength of 560 nm and an emission wavelength of 590 nm using a fluorometer (Fluoroscan Ascent, Thermo Electron Inc., Milford, Mass., USA). The assays were performed in triplicate (three wells per sample) and data are expressed as stimulation indices (SI), and calculated using the following equations: […]
Substance,"Stimulation index, proliferation of murine splenocytes in the presence of Concavanalin A (peptide 10 μg mL^−1, 72 h)","Stimulation index, proliferation of resting murine splenocytes (peptide 10 μg mL^−1, 96 h)","Stimulation index, proliferation of murine splenocytes in the presence of Concavanalin A (peptide 100 μg mL^−1, 72 h)","Stimulation index, proliferation of resting murine splenocytes (peptide 100 μg mL^−1, 96 h)","Stimulation index, proliferation of murine splenocytes in the presence of Concavanalin A (peptide 500 μg mL^−1, 72 h)","Stimulation index, proliferation of resting murine splenocytes (peptide 500 μg mL^−1, 96 h)","Stimulation index, proliferation of murine splenocytes in the presence of Concavanalin A (peptide 1000 μg mL^−1, 72 h)","Stimulation index, proliferation of resting murine splenocytes (peptide 1000 μg mL^−1, 96 h)","Stimulation index, proliferation of murine splenocytes in the presence of Concavanalin A (peptide 2000 μg mL^−1, 72 h)","Stimulation index, proliferation of resting murine splenocytes (peptide 2000 μg mL^−1, 96 h)"
ALPMHIR (listed as Homo sapiens) [β-Lg f142-148],2.32,1.16,2.30,1.17,2.36,1.37**,2.49**,1.61**,2.63**,1.73**
"EILLQK (UniProt P02754 71-76, looked up, fragment) [β-Lg f55-60]",1.96,1.05,1.92,1.09,1.98,1.16,1.93,1.54**,2.34**,1.54**
IDALNENK [β-Lg f84-91],2.20,0.99,2.27,1.08,2.24,1.20*,2.18,1.22*,2.16,1.27**
RELKDLK [α-La f10-16],1.85,1.06,1.95,1.19,1.95,1.47**,2.08,1.81**,2.26**,1.97**
"VAGTWY (UniProt P02754 31-36, looked up, fragment) [β-Lg f15-20]",1.65,1.01,1.71,1.12*,1.67,1.46**,1.78,1.65**,1.77,1.42**
VLVLDTDYKKYLLF (listed as Homo sapiens) [β-Lg f92-105],1.92,1.00,1.92,1.07,2.27**,1.15**,2.37**,1.31**,2.69**,1.55**
